Measured values published in the supplement of paper PMC4862054.

Legend:
Experiment in all cases: normalised viability (% of control), CellTiter-Blue; higher = more viable cells (about 100 = DMSO control)
Conditions in all cases: incubation time: 72 h
CAL-51 [1] = test system: CAL-51
Procedure: (§1)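 DSRT, CellTiter-Blue viability, 72 h incubation. Signal is normalised to DMSO and benzethonium chloride controls. Value is the normalised response at dose 6.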

CAL-148 [2] = test system: CAL-148
Procedure: as §1

HDQ-P1 [3] = test system: HDQ-P1
Procedure: as §1

CAL-85-1 [4] = test system: CAL-85-1
Procedure: as §1

MDA-MB-453 [5] = test system: MDA-MB-453
Procedure: as §1

DU-4475 [6] = test system: DU-4475
Procedure: as §1

CAL-51 [7] = test system: CAL-51; remark: listed apart in the source
Procedure: (§2)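 DSRT, CellTiter-Blue viability, 72 h incubation. Signal is normalised to DMSO and benzethonium chloride controls. Value is the normalised response at dose 8.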

CAL-148 [8] = test system: CAL-148; remark: listed apart in the source
Procedure: as §2

HDQ-P1 [9] = test system: HDQ-P1; remark: listed apart in the source
Procedure: as §2

CAL-85-1 [10] = test system: CAL-85-1; remark: listed apart in the source
Procedure: as §2

MDA-MB-453 [11] = test system: MDA-MB-453; remark: listed apart in the source
Procedure: as §2

DU-4475 [12] = test system: DU-4475; remark: listed apart in the source
Procedure: as §2

| Compound | normalised viability (CAL-51 [1]) [%] | normalised viability (CAL-148 [2]) [%] | normalised viability (HDQ-P1 [3]) [%] | normalised viability (CAL-85-1 [4]) [%] | normalised viability (MDA-MB-453 [5]) [%] | normalised viability (DU-4475 [6]) [%] | normalised viability (CAL-51 [7]) [%] | normalised viability (CAL-148 [8]) [%] | normalised viability (HDQ-P1 [9]) [%] | normalised viability (CAL-85-1 [10]) [%] | normalised viability (MDA-MB-453 [11]) [%] | normalised viability (DU-4475 [12]) [%] |
| --- | --- | --- | --- | --- | --- | --- | --- | --- | --- | --- | --- | --- |
| CC(C)(C)c1cc(NC(=O)Nc2ccc(-c3cn4c(n3)sc3cc(OCCN5CCOCC5)ccc34)cc2)no1 [Quizartinib] (30 nM) | 101 | 103 | 53.4 | 97.2 | 102 | 109 | – | – | – | – | – | – |
| CN1CCN(c2ccc3nc(-c4c(N)c5c(F)cccc5[nH]c4=O)[nH]c3c2)CC1 [Dovitinib] (3000 nM) | – | – | – | – | – | – | 109 | 90.2 | 87.4 | 86.9 | 93.4 | 87.9 |
| O=c1[nH]cc(F)c(=O)[nH]1 [Fluorouracil] (3000 nM) | – | – | – | – | – | – | 87.9 | 65.6 | 87.8 | 62.6 | 85.7 | 81.6 |
| O=C(c1ccc(OCCN2CCCCC2)cc1)c1c(-c2ccc(O)cc2)sc2cc(O)ccc12 [Raloxifene] (3000 nM) | – | – | – | – | – | – | 101 | 109 | 89.1 | 94.3 | 91.9 | 121 |
| COC1=CC(c2cc3ccccc3[nH]2)=N/C1=C\c1[nH]c(C)cc1C [Obatoclax] (300 nM) | 95.7 | 91.1 | 40.7 | 66.2 | 72.2 | 75 | – | – | – | – | – | – |
| C[C@@]1(C(=O)Nc2ccc(F)nc2)CCCN1c1nc(Nc2cc(C3CC3)n[nH]2)c2cccn2n1 (3000 nM) | – | – | – | – | – | – | 31.4 | 42.9 | 25.6 | 38.1 | 65.4 | 14.8 |
| COc1cccc2c1C(=O)c1c(O)c3c(c(O)c1C2=O)C[C@@](O)(C(C)=O)C[C@@H]3O[C@H]1C[C@H](N)[C@H](O)[C@H](C)O1 [Daunorubicin] (300 nM) | – | – | – | – | – | – | 31.2 | 48.7 | 52.7 | 53.8 | 76.1 | 33.6 |
| Cn1cnc2c(F)c(Nc3ccc(Br)cc3F)c(C(=O)NOCCO)cc21 [MEK-162] (300 nM) | – | – | – | – | – | – | 90 | 87.1 | 95.6 | 86.7 | 136 | 4.15 |
| COc1ncc(-c2ccc3nccc(-c4ccnnc4)c3c2)cc1NS(=O)(=O)c1ccc(F)cc1F (300 nM) | – | – | – | – | – | – | 6.4 | 6.61 | 21.2 | 17.9 | 4.39 | 37.8 |
| COc1ncc(-c2ccc3nccc(-c4ccnnc4)c3c2)cc1NS(=O)(=O)c1ccc(F)cc1F (30 nM) | 33.1 | 43.7 | 30.4 | 50.4 | 12.1 | 63.6 | – | – | – | – | – | – |
| COC1=C2C[C@@H](C)C[C@H](OC)[C@H](O)[C@@H](C)/C=C(\C)[C@H](OC(N)=O)[C@@H](OC)/C=C\C=C(/C)C(=O)NC(=CC1=O)C2=O [Geldanamycin] (300 nM) | 74.5 | 28.9 | 46.5 | 47.7 | 6.01 | 0.05 | – | – | – | – | – | – |
| O=c1[nH]cc(F)c(=O)[nH]1 [Fluorouracil] (300 nM) | 101 | 96.7 | 87.2 | 87.2 | 85.7 | 102 | – | – | – | – | – | – |
| CCS(=O)(=O)c1cccc(-c2cc(C(=O)NC3CCN(C)CC3)c(C)c3[nH]c4ncc(C)cc4c23)c1 [TAK-901] (30 nM) | 78.1 | 42.2 | 96.5 | 79.4 | 55.5 | 90.6 | – | – | – | – | – | – |
| CCOc1cc2ncc(C#N)c(Nc3ccc(OCc4ccccn4)c(Cl)c3)c2cc1NC(=O)/C=C/CN(C)C [Neratinib] (300 nM) | – | – | – | – | – | – | 88 | 101 | 122 | 121 | 79.9 | 87.2 |
| CS(=O)(=O)OCCCCOS(C)(=O)=O [Busulfan] (3000 nM) | 92.8 | 114 | 83 | 106 | 99.9 | 76 | – | – | – | – | – | – |
| CC[C@@]1(O)C(=O)OCc2c1cc1n(c2=O)Cc2cc3ccccc3nc2-1 [Camptothecin] (150 nM) | 12.7 | 12.8 | 48.3 | 61 | 50.7 | 13.9 | – | – | – | – | – | – |
| C[C@@H]1C=C2C(=O)O[C@@H]3CC[C@H](C1)[C@]23O [Galiellalactone] (15000 nM) | – | – | – | – | – | – | 124 | 52.8 | 75.3 | 14.1 | 20.3 | 126 |
| CN1CCN(c2ccc3nc(-c4c(N)c5c(F)cccc5[nH]c4=O)[nH]c3c2)CC1 [Dovitinib] (300 nM) | 109 | 98.7 | 54.7 | 86.9 | 94.5 | 86.5 | – | – | – | – | – | – |
| COc1ccc(C2=N[C@@H](c3ccc(Cl)cc3)[C@@H](c3ccc(Cl)cc3)N2C(=O)N2CCNC(=O)C2)c(OC(C)C)c1 [Nutlin-3] (3000 nM) | – | – | – | – | – | – | 73 | 72.6 | 120 | 101 | 83.9 | 67.5 |
| COc1c(C)cnc(Cn2cnc3c(Cl)nc(N)nc32)c1C [BIIB021] (3000 nM) | – | – | – | – | – | – | 10.2 | 17 | 33 | 22.9 | 6.99 | -0.3 |
